Data as given in the supplement of paper PMC6045584.
± gives the standard deviation of the averaged measurements.

How the values were obtained:
LAPATINIB = compound: CS(=O)(=O)CCNCc1ccc(-c2ccc3ncnc(Nc4ccc(OCc5cccc(F)c5)c(Cl)c4)c3c2)o1 [LAPATINIB]; experiment: surviving fraction relative to DMSO-only wells; higher = less growth inhibition; settings: exposure time: 5 days
Method in brief: (§1)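 Log-phase tumour cell lines, 250–500 cells per well in 384-well plates, received inhibitors at 0.5, 1, 5, 10, 50, 100, 500 and 1000 nM continuously for five days, starting 24 hours after seeding. Viability was quantified with CellTiter-Glo luminescence and normalised to the median of DMSO-only wells to give surviving fraction. Three screens were run per line, and a line stayed in only with replicate Pearson r >0.7 and median Z' >0.3.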

DECITABINE = compound: Nc1ncn([C@H]2C[C@H](O)[C@@H](CO)O2)c(=O)n1 [DECITABINE]; experiment: as above; settings: exposure time: 5 days
Method in brief: as §1

Row | Test System | surviving fraction (LAPATINIB; 0.5 nM) | surviving fraction (LAPATINIB; 1 nM) | surviving fraction (LAPATINIB; 5 nM) | surviving fraction (LAPATINIB; 10 nM) | surviving fraction (LAPATINIB; 50 nM) | surviving fraction (LAPATINIB; 100 nM) | surviving fraction (LAPATINIB; 500 nM) | surviving fraction (LAPATINIB; 1000 nM) | surviving fraction (DECITABINE; 0.5 nM) | surviving fraction (DECITABINE; 1 nM) | surviving fraction (DECITABINE; 5 nM) | surviving fraction (DECITABINE; 10 nM) | surviving fraction (DECITABINE; 50 nM) | surviving fraction (DECITABINE; 100 nM) | surviving fraction (DECITABINE; 500 nM) | surviving fraction (DECITABINE; 1000 nM)
1 | SG27 HEADNECK | 1.09 ± 0.081 | 1.09 ± 0.056 | 1.1 ± 0.27 | 1.18 ± 0.17 | 0.977 ± 0.14 | 1.04 ± 0.067 | 0.988 ± 0.026 | 1.06 ± 0.06 | 1.17 ± 0.15 | 1.12 ± 0.06 | 1.15 ± 0.14 | 1.07 ± 0.14 | 1.2 ± 0.065 | 1.18 ± 0.14 | 1.11 ± 0.063 | 1.19 ± 0.16
2 | SG28 HEADNECK | 0.979 ± 0.1 | 1.07 ± 0.03 | 0.851 ± 0.11 | 1.03 ± 0.042 | 0.764 ± 0.043 | 0.775 ± 0.079 | 0.599 ± 0.057 | 0.563 ± 0.021 | 1.14 ± 0.054 | 1.28 ± 0.038 | 1.2 ± 0.062 | 1.06 ± 0.098 | 1.25 ± 0.14 | 1.11 ± 0.045 | 1.11 ± 0.13 | 1.065 ± 0.0021
3 | SG31 HEADNECK | 1.17 ± 0.26 | 1.05 ± 0.18 | 0.799 ± 0.1 | 0.948 ± 0.093 | 0.699 ± 0.084 | 1.02 ± 0.27 | 0.775 ± 0.23 | 0.846 ± 0.21 | 1.27 ± 0.12 | 1.2 ± 0.059 | 1.14 ± 0.083 | 1.13 ± 0.1 | 1.08 ± 0.04 | 0.952 ± 0.11 | 1.01 ± 0.13 | 0.909 ± 0.095
4 | SG32 HEADNECK | 1.05 ± 0.22 | 1.02 ± 0.1 | 1.07 ± 0.14 | 1.12 ± 0.17 |  | 1.67 ± 0.82 | 0.905 ± 0.23 | 0.801 ± 0.18 | 1.25 ± 0.11 | 1.26 ± 0.16 | 1.12 ± 0.12 | 1.16 ± 0.067 | 1.25 ± 0.36 | 1.1 ± 0.14 | 0.908 ± 0.071 | 0.715 ± 0.064
5 | SG43 HEADNECK | 0.869 ± 0.17 | 0.93 ± 0.22 | 0.84 ± 0.095 | 0.821 ± 0.067 | 0.711 ± 0.23 | 0.494 ± 0.12 | 0.304 ± 0.011 | 0.314 ± 0.13 | 1.02 ± 0.031 | 1.14 ± 0.16 | 0.953 ± 0.11 | 1.03 ± 0.48 | 0.835 ± 0.18 | 0.868 ± 0.2 | 0.812 ± 0.062 | 0.8 ± 0.049
6 | SIHA CERVIX | 1.05 ± 0.033 | 1.14 ± 0.021 | 1.06 ± 0.02 | 1.11 ± 0.037 | 1.03 ± 0.031 | 1.02 ± 0.086 | 1.05 ± 0.06 | 1.1 ± 0.042 | 1.08 ± 0.026 | 0.979 ± 0.052 | 1.08 ± 0.02 | 1.05 ± 0.055 | 1.07 ± 0.055 | 1.08 ± 0.085 | 0.983 ± 0.055 | 0.988 ± 0.11
7 | SJSA1 BONE | 1.471 ± 0.007 | 1.67 ± 0.035 | 1.67 ± 0.09 | 1.72 ± 0.04 | 1.62 ± 0.095 | 1.47 ± 0.077 | 1.42 ± 0.022 | 1.75 ± 0.037 | 0.512 ± 0.028 | 1.53 ± 0.038 | 1.63 ± 0.11 | 0.545 ± 0.031 | 1.55 ± 0.081 | 1.68 ± 0.022 | 1.73 ± 0.05 | 1.77 ± 0.053
8 | SKBR3 BREAST | 1.07 ± 0.057 | 1.06 ± 0.04 | 1.12 ± 0.12 | 1.01 ± 0.054 | 0.697 ± 0.026 | 0.508 ± 0.03 | 0.233 ± 0.014 | 0.171 ± 0.021 | 1.02 ± 0.11 | 1.12 ± 0.0031 | 1.13 ± 0.035 | 0.959 ± 0.042 | 1.03 ± 0.094 | 1 ± 0.1 | 0.996 ± 0.017 | 0.931 ± 0.089
9 | SNU475 LIVER | 1.01 ± 0.013 | 1.03 ± 0.04 | 1.01 ± 0.027 | 0.992 ± 0.035 | 0.953 ± 0.042 | 1 ± 0.041 | 0.987 ± 0.047 | 0.954 ± 0.04 | 1.06 ± 0.024 | 1.05 ± 0.024 | 1.051 ± 0.0036 | 1.02 ± 0.026 | 1.03 ± 0.017 | 0.984 ± 0.038 | 1.03 ± 0.036 | 1.03 ± 0.032
10 | SUM44 BREAST | 1.05 ± 0.069 | 1.11 ± 0.19 | 1.11 ± 0.066 | 1.17 ± 0.21 | 1.04 ± 0.045 | 1.21 ± 0.17 | 1.08 ± 0.07 | 1.24 ± 0.18 | 1.15 ± 0.17 | 1.1 ± 0.16 | 1.17 ± 0.23 | 1.14 ± 0.17 | 1.31 ± 0.26 | 1.23 ± 0.15 | 1.13 ± 0.12 | 1.15 ± 0.069
